ChEMBL document CHEMBL1909046, “DrugMatrix in vitro pharmacology data”

Key:
[1] = target: Beta-3 adrenergic receptor (Homo sapiens, UniProt P13945); test: DRUGMATRIX: Adrenergic beta3 radioligand binding (ligand: [125I] Cyanopindolol); format: cell membranes, HEK293, Membrane; settings: hek293; Not Active = under 50% inhibition at 10 µM
[2] = DRUGMATRIX: GABAA, Chloride Channel, TBOB radioligand binding (ligand: [3H] TBOB); format: cell membranes, Rattus norvegicus, Wistar, Cerebral cortex, Membrane; settings: Not Active = under 50% inhibition at 10 µM
[3] = target: T1, 3-hydroxy-3-methylglutaryl-coenzyme A reductase (Homo sapiens, UniProt P04035); parameters: species or system Escherichia coli;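 note: enzyme inhibition assay of HMG-CoA reductase using radiolabeled [14C]HMG-CoA as substrate; in other assays of this panel Not Active means under 50% inhibition at 10 µM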
T1 sequence (P04035 whole entry): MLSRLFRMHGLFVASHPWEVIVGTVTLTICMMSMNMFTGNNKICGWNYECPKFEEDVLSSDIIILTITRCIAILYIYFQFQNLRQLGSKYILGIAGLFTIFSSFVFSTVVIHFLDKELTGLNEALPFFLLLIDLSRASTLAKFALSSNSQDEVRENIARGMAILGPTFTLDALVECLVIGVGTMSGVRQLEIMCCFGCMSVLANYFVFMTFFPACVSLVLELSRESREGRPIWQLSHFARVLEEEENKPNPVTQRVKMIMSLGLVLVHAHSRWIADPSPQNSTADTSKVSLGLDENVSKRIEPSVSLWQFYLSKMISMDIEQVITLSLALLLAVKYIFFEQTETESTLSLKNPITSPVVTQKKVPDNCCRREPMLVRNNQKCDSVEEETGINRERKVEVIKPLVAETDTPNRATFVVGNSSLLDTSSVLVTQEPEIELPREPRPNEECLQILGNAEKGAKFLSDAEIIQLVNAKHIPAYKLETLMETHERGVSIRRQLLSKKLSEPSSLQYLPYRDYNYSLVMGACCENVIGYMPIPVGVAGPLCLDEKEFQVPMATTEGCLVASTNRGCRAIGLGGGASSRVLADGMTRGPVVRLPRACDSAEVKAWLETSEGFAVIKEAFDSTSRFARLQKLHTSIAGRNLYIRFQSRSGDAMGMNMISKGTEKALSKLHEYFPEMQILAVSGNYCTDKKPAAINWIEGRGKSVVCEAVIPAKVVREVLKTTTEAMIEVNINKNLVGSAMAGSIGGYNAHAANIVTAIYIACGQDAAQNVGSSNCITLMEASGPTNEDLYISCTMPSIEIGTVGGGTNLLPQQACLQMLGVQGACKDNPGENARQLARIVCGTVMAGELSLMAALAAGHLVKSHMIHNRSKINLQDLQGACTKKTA

[4] = target: T2, Angiotensin-converting enzyme (Oryctolagus cuniculus, UniProt P12822); format: tissue-based, Lung;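 note: enzymatic inhibition of angiotensin-converting enzyme measured with FAPGG as the substrate; in other assays of this panel Not Active means under 50% inhibition at 10 µM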
T2 sequence (P12822 whole entry): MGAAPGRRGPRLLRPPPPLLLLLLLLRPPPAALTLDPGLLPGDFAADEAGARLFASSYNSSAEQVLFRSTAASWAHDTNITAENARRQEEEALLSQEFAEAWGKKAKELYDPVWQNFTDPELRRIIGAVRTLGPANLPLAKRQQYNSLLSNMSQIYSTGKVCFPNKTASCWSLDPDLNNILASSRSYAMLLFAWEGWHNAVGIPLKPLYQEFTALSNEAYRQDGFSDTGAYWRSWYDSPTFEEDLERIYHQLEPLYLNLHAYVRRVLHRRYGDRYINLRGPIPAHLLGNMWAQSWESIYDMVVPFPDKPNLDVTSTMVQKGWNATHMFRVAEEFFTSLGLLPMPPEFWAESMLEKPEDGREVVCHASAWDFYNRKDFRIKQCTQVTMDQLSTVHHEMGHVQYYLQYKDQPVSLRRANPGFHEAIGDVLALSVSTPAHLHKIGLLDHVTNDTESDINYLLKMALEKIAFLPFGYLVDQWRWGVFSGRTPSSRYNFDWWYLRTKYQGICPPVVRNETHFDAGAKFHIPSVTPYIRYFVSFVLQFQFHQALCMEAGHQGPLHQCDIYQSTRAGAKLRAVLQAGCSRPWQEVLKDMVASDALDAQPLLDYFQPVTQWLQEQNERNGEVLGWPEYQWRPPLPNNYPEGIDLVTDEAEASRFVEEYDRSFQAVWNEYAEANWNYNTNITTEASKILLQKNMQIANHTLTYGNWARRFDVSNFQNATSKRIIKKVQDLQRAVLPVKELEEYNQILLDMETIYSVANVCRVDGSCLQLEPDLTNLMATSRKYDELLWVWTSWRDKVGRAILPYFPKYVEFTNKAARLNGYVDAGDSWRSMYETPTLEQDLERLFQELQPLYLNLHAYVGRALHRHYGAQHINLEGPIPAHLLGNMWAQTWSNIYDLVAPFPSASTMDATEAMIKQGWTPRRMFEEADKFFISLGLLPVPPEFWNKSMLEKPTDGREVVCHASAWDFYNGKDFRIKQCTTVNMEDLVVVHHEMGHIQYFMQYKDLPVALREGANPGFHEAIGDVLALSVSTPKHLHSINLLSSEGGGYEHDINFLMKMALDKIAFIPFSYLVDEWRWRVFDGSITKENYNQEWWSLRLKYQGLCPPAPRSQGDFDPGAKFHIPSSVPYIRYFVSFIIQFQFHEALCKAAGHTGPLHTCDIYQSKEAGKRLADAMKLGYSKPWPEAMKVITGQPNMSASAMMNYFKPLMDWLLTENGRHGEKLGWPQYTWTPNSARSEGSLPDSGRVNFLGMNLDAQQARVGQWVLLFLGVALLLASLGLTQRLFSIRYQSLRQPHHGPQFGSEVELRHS

[5] = target: Tyrosine-protein kinase Fyn (Homo sapiens, UniProt P06241); test: biochemical; format: cell-based, Insect cells; settings: insect cells;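 note: enzymatic inhibition of Fyn kinase activity measured with Poly(Glu:Tyr) as the phosphorylation substrate; in other assays of this panel Not Active means under 50% inhibition at 10 µM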
[6] = DRUGMATRIX: Purinergic P2X radioligand binding (ligand: [3H] alpha, beta-Methylene-ATP); format: cell membranes, Oryctolagus cuniculus, New Zealand albino, Urinary bladder, Membrane; settings: Not Active = under 50% inhibition at 10 µM
Estrogen receptor beta = Estrogen receptor beta (Homo sapiens, UniProt Q92731); settings: sf9; note: in other assays of this panel Not Active means under 50% inhibition at 10 µM
Chain of Estrogen receptor beta (Q92731 whole entry): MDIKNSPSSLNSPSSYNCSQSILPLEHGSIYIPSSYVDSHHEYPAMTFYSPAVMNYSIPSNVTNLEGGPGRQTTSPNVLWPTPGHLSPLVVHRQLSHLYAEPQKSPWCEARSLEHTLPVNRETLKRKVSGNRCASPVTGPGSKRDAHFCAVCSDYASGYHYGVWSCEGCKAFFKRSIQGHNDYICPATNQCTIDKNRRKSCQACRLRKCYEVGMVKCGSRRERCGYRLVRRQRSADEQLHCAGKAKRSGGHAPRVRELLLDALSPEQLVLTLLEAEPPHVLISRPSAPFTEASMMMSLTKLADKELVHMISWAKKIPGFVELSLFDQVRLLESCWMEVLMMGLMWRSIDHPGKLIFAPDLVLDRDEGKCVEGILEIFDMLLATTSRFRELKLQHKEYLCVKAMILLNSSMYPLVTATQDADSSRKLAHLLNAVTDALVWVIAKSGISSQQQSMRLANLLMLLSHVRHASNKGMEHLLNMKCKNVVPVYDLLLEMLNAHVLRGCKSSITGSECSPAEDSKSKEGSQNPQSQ

Chain of Tyrosine-protein kinase Fyn (P06241 whole entry): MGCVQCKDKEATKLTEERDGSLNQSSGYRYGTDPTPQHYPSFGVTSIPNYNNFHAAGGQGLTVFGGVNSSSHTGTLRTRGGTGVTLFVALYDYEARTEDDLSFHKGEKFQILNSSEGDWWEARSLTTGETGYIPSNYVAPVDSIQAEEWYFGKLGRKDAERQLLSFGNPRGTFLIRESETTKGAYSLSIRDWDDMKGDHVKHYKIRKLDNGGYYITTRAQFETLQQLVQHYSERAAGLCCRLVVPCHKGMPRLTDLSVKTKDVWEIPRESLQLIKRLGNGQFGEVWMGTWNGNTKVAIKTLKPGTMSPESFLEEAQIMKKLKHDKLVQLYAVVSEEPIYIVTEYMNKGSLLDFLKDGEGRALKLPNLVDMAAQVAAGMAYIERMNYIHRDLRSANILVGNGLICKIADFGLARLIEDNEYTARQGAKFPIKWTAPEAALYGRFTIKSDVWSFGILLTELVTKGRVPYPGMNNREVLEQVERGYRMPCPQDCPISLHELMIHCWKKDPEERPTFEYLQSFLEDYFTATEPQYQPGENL
Chain of Beta-3 adrenergic receptor (P13945 whole entry): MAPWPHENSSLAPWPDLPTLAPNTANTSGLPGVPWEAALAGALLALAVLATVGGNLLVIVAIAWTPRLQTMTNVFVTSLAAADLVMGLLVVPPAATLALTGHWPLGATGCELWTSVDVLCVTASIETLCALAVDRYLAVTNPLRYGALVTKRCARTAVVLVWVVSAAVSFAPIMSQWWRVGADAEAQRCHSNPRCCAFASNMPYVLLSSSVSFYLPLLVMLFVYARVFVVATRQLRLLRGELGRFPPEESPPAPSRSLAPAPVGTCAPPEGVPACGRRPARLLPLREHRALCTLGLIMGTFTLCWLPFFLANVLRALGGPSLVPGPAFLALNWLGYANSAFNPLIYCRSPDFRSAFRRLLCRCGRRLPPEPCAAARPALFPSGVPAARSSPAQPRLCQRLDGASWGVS

O=C(c1ccccc1C(F)(F)F)N1CCC(Cc2ccccc2)CC1
Not Active: IC50 [1] | IC50 [2] | Ki [2] | IC50 [3] | IC50 [4] | IC50 [5] | IC50 [6] | Ki [6] | IC50 (Estrogen receptor beta)

Nc1ccc2c3c(cccc13)C(=O)NC2=O
Not Active: IC50 [1] | IC50 [2] | Ki [2] | IC50 [3] | IC50 [4] | IC50 [5] | IC50 [6] | Ki [6] | IC50 (Estrogen receptor beta)

O=c1cnn([C@@H]2O[C@H](CO)[C@@H](O)[C@H]2O)c(=O)[nH]1 [6-AZAURIDINE]
Not Active: IC50 [1] | IC50 [2] | Ki [2] | IC50 [3] | IC50 [4] | IC50 [5] | IC50 [6] | Ki [6] | IC50 (Estrogen receptor beta)

NCCCC(O)(P(=O)(O)O)P(=O)(O)O [ALENDRONIC ACID]
Not Active: IC50 [1] | IC50 [2] | Ki [2] | IC50 [3] | IC50 [4] | IC50 [5] | IC50 [6] | Ki [6] | IC50 (Estrogen receptor beta)

Cc1nnc2n1-c1ccc(Cl)cc1C(c1ccccc1)=NC2 [ALPRAZOLAM]
Not Active: IC50 [1] | IC50 [2] | Ki [2] | IC50 [3] | IC50 [4] | IC50 [5] | IC50 [6] | Ki [6] | IC50 (Estrogen receptor beta)

CCC1(CCC(C)C)C(=O)NC(=O)NC1=O [AMOBARBITAL]
Not Active: IC50 [1] | IC50 [2] | Ki [2] | IC50 [3] | IC50 [4] | IC50 [5] | IC50 [6] | Ki [6] | IC50 (Estrogen receptor beta)

COc1ccc(C2C(=O)c3ccccc3C2=O)cc1 [ANISINDIONE]
Not Active: IC50 [1] | IC50 [2] | Ki [2] | IC50 [3] | IC50 [4] | IC50 [5] | IC50 [6] | Ki [6] | IC50 (Estrogen receptor beta)

O=C1O[C@H]([C@@H](O)CO)C(O)=C1O [ASCORBIC ACID]
Not Active: IC50 [1] | IC50 [2] | Ki [2] | IC50 [3] | IC50 [4] | IC50 [5] | IC50 [6] | Ki [6] | IC50 (Estrogen receptor beta)

CN1[C@@H]2CC[C@H]1C[C@@H](OC(=O)C(CO)c1ccccc1)C2 (stereo not given in full) [ATROPINE]
Not Active: IC50 [1] | IC50 [2] | Ki [2] | IC50 [3] | IC50 [4] | IC50 [5] | IC50 [6] | Ki [6] | IC50 (Estrogen receptor beta)

CC(C(=O)O)c1ccc2oc(-c3ccc(Cl)cc3)nc2c1 (stereo not given) [BENOXAPROFEN]
Not Active: IC50 [1] | IC50 [2] | Ki [2] | IC50 [3] | IC50 [4] | IC50 [5] | IC50 [6] | Ki [6] | IC50 (Estrogen receptor beta)
